Results taken from US20160206629A1, “TOPICAL COMPOSITION COMPRISING A FILM-FORMING POLYMER FOR DELIVERING AN ACTIVE INGREDIENT TO SKIN” (LEO Pharma A/S, priority 2012, published 2016).

Assay: In vitro skin penetration, full thickness pig ear skin, Franz-type diffusion cells, 3H-BMV
Assay type: in vitro ADME
Experimental: To investigate the skin penetration and permeation of BMV from compositions according to example 1, a skin diffusion experiment was conducted. Full thickness skin from pig ears was used in the study. The skin was cleaned and kept frozen at −18° C. before use. On the day prior to the experiment the skin was placed in a refrigerator (5±3° C.) for slow defrosting.
Static Franz-type diffusion cells with an available diffusion area of 3.14 cm^2 and receptor volumes ranging from 8.6 to 11.1 ml were used in substantially the manner described by T. J. Franz, “The finite dose technique as a valid in vitro model for the study of percutaneous absorption in man”, in Current Problems in Dermatology, 1978, J. W. H. Mall (Ed.), Karger, Basel, pp. 58-68. The specific volume was measured and registered for each cell. A magnetic bar was placed in the receptor compartment of each cell. After mounting the skin, physiological saline (35° C.) was filled into each receptor chamber for hydration of the skin. The cells were placed in a thermally controlled water bath which was placed on a magnetic stirrer set at 300 rpm. […]
Samples (1 ml) of the receptor fluid remaining in the diffusion cell were collected and analysed.
The concentration of ^3H-BMV in the samples were determined by liquid scintillation counting.

CCCCC(=O)O[C@]1(C(=O)CO)[C@@H](C)C[C@H]2[C@@H]3CCC4=CC(=O)C=C[C@]4(C)[C@@]3(F)[C@@H](O)C[C@@]21C [BMV, betamethasone valerate]
permeation of BMV into the receptor medium (receptor medium acetate buffer pH 5.5 with 1% methyl-β-cyclodextrin): None
accumulation of BMV in skin layers (stratum corneum versus epidermis, FIG. 3): mainly accumulated in the stratum corneum
